Data: patent EP0085283A1, “Pyroglutamyl-tryptophan derivatives, process for their preparation and their therapeutic applications” (Società Italo-Britannica L. Manetti - H. Roberts & C., priority 1981, dated 1983)

Columns and labels:
Format in all cases: in vivo
[1] = tested on: male rats of Wistar strain; assay: Acquisition of shuttle-box active avoidance behavior (single session test); settings: 1 h prior to testing
Experimental: (§1) Behavioral effects of DL-pyroglutamyl-tryptophan (pGlu-Trp) have been studied in male rats of Wistar strain (purchased from Morini, Italy), weighing 130+10 g at the onset of experiments. Animals were kept under light- dark cycle (lights on between 8.00 and 20.00) with standard food and water available ad lib. Animals were injected intraperitoneally (ip) with 10 or 100 mg/kg of pGlu-Trp dissolved in a solution of NaHCO3 1 N and adjusted at pH 7.4 with HC1 0.1 N. Control animals received injection of the vehicle alone. Injections were performed 1 h prior to the behavioral testing. The animals were used only once for the behavioral experiments.
Acquisition of active avoidance behavior was studied in a single session test. The rats were trained to avoid the unconditioned stimulus (US) of a scrambled electrical footshock (0.20 mA) delivered through the grid floor. The conditioned stimulus (CS) was a buzzer presented for 5 sec prior to the US. If no escape occurred within 20 sec of CS/US presentation, the shock was terminated. A maximum of 30 conditioning trials were given with a variable intertrial interval averaging 60 sec. The learning criterion was 5 consecutive conditioned avoidance responses (CARs). For those animals that reached this criterion in less than 30 trials, the remaining trials up to a total of 30 were considered as lARs. Indexes of avoidance behavior were the total number of CARs and the number of learners.

[2] = tested on: male rats of Wistar strain; assay: Hot plate test for analgesia; settings: 10 mg/kg ip
Experimental: as §1
Hot plate test for analgesia was studied with a circular hot plate ([…]) where the animals were placed singularly.
The latency in sec to the first behavioral reaction to hot pain (licking of paw) was recorded.

[3] = tested on: male rats of Wistar strain; assay: Open field behavior in a circular open field arena; settings: 10 mg/kg ip
Experimental: as §1
Open field behavior was studied in a circular open field arena. Ambulation (number of floor units entered), rearing, grooming and defecation scores were recorded during a 5-min observation session.

O=C1CC[C@@H](C(=O)N[C@@H](Cc2c[nH]c3ccccc23)C(=O)O)N1 (racemic) [pGlu-Trp, pyroglutamyltryptophan]
total number of CARs ([1]; 10 mg/kg ip, controls 14.8+1.50, difference not significant): 12.7+1.99 | number of CARs ([1]; 100 mg/kg ip, controls 14.2+1.47, p<0.02): 19.0+1.21 | percentage of learners ([1]; 100 mg/kg ip, controls 66.6%): 90.9% | analgesic effect (latency to licking of paw) [2]: No analgesic effect | defecation boli [3]: decreased | Ambulation (number of floor units entered) ([3]; 5-min observation session, controls 94.5+4.7): 78.5+4.4 | grooming ([3]; treated versus control rats): No difference | rearing ([3]; treated versus control rats): No difference
